Experimental data taken from patent EP1763509B1, “ALPHA-HELICAL MIMETICS” (THE WALTER AND ELIZA HALL INSTITUTE OF MEDICAL RESEARCH, priority 2004, dated 2006).

Experiments:
Bcl-xLΔ25 = target: T1, Bcl-xLΔ25 (Homo sapiens, UniProt Q07817); assay: Alphascreen GST competition binding assay, benzoylurea compounds vs Biotinylated Bim BH3-26 peptide on GST tagged Bcl-xL ΔC25 protein; details: GST tagged Bcl-xL ΔC25 protein 0.6 nM, Biotinylated Bim BH3-26 peptide 5.0 nM, 4 hours at room temperature; n.b. = not binding in the assay conditions
T1 construct: GST tagged Bcl-xL ΔC25 protein

Bcl-wΔ29 = target: T2, Bcl-wΔ29 (Homo sapiens, UniProt Q92843); assay: Alphascreen GST competition binding assay, benzoylurea compounds vs Biotinylated Bim BH3-26 peptide on GST tagged Bclw ΔC29 protein; details: GST tagged Bclw ΔC29 protein 0.05 nM, Biotinylated Bim BH3-26 peptide 3.0 nM, 4 hours at room temperature; values marked a tested in a separate experiment; n.b. = not binding in the assay conditions
T2 construct: GST tagged Bclw ΔC29 protein
T2 sequence (Q92843 1-164 limits assumed): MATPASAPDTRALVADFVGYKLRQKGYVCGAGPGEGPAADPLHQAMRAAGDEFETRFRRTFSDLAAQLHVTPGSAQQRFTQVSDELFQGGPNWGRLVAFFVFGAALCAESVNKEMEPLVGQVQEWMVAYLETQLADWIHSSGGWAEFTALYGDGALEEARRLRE

Mcl-1 = Mcl-1 (Homo sapiens, UniProt Q07820); assay: Alphascreen GST competition binding assay, benzoylurea compounds vs Biotinylated Bak BH3 peptide on GST tagged Mcl-1 protein; details: GST tagged Mcl-1 protein 0.4 nM, Biotinylated Bak BH3 peptide 4.0 nM, 4 hours at room temperature; n.b. = not binding in the assay conditions
Sequence of Mcl-1 (Q07820 whole entry, species assumed): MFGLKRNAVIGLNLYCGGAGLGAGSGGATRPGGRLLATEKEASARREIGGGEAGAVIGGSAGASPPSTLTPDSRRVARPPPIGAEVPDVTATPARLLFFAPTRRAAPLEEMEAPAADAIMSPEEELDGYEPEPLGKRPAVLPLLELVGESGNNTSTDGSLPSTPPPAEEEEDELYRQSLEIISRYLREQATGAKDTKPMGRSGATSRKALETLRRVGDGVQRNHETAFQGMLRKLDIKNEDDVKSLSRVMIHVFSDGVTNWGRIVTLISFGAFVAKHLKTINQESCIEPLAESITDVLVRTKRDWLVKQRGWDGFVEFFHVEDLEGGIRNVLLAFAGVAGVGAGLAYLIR

T1 sequence (Q07817 1-208 limits assumed, stated change not applied): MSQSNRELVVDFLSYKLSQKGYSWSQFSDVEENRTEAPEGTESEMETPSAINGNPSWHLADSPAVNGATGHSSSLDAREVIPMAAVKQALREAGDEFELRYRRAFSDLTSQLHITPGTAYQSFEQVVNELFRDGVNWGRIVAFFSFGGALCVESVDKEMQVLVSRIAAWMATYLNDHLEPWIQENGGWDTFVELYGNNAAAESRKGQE

IC50 (Bcl-xLΔ25) | IC50 (Bcl-wΔ29) | IC50 (Mcl-1) | Bcl-xLΔ25 IC50 (µM) (Bcl-xLΔ25) | Mcl-1 IC50 (µM) (Mcl-1) | Compound
56.8 µM | 57 µM |  |  |  | CCCCN(C(=O)N[C@@H](CSCc1ccccc1)C(=O)O)C(=O)c1cccc(-c2ccccc2)c1 [(2)]
65.8 µM | 65 µM |  |  |  | CC(C)CN(C(=O)N[C@@H](CSCc1ccccc1)C(=O)O)C(=O)c1cccc(-c2ccccc2)c1 [(3)]
153 µM | 266 µM |  |  |  | CC(C)N(C(=O)N[C@@H](CSCc1ccccc1)C(=O)O)C(=O)c1cccc(-c2ccccc2)c1 [(5)]
54.2 µM | 73 µM |  |  |  | O=C(O)[C@H](CSCc1ccccc1)NC(=O)N(C(=O)c1cccc(-c2ccccc2)c1)C1CCCCC1 [(6)]
45.2 µM | 37 µM |  |  |  | O=C(O)[C@H](CSCc1ccccc1)NC(=O)N(CC1CCCCC1)C(=O)c1cccc(-c2ccccc2)c1 [(7)]
36.4 µM | 46 µM |  |  |  | O=C(O)[C@H](CSCc1ccccc1)NC(=O)N(Cc1ccccc1)C(=O)c1cccc(-c2ccccc2)c1 [(8)]
27 µM | 45 µM | 169 µM |  |  | Cc1ccc(CN(C(=O)N[C@@H](CSCc2ccccc2)C(=O)O)C(=O)c2ccc(-c3ccccc3)cc2)cc1 [(82)]
14 µM | 35 µM | 77 µM |  |  | COc1ccc(CN(C(=O)N[C@@H](CSCc2ccccc2)C(=O)O)C(=O)c2ccc(-c3ccccc3)cc2)cc1 [(83)]
11 µM | 27 µM | 61 µM |  |  | O=C(O)[C@H](CSCc1ccccc1)NC(=O)N(Cc1ccc(Cl)cc1)C(=O)c1ccc(-c2ccccc2)cc1 [(84)]
 | 40 µM | 95 µM | n.b.^b |  | O=C(O)[C@H](CSCc1ccccc1)NC(=O)N(Cc1ccc(Cl)c(Cl)c1)C(=O)c1ccc(-c2ccccc2)cc1 [(85)]
283 µM | 82 µM |  |  | n.b.^b | CCCN(C(=O)N[C@@H](CSCc1ccccc1)C(=O)O)C(=O)c1ccc(/C=C/c2ccccc2)cc1 [(86)]
86 µM | 50 µM | 107 µM |  |  | CCCN(C(=O)N[C@@H](CSCc1ccccc1)C(=O)O)C(=O)c1ccc(CCc2ccccc2)cc1 [(89)]
22 µM | 39 µM | 70 µM |  |  | CCCSC[C@H](NC(=O)N(CCC)C(=O)c1cccc(C#Cc2ccccc2)c1)C(=O)O [(90)]
16 µM | 32 µM | 92 µM |  |  | CCCN(C(=O)N[C@@H](CSCC(C)C)C(=O)O)C(=O)c1cccc(C#Cc2ccccc2)c1 [(91)]
36 µM | 67 µM |  |  | n.b.^b | CCCN(C(=O)N[C@@H](CSC(C)C)C(=O)O)C(=O)c1cccc(C#Cc2ccccc2)c1 [(92)]
27 µM | 26 µM | 53 µM |  |  | CCCN(C(=O)N[C@@H](CSc1ccccc1)C(=O)O)C(=O)c1cccc(C#Cc2ccccc2)c1 [(93)]
23 µM | 19 µM | 46 µM |  |  | CCCN(C(=O)N[C@@H](CSCCc1ccccc1)C(=O)O)C(=O)c1cccc(C#Cc2ccccc2)c1 [(94)]
153 µM | 52 µM | 133 µM |  |  | CCCN(C(=O)N[C@@H](CSCc1ccccc1-c1ccccc1)C(=O)O)C(=O)c1cccc(C#Cc2ccccc2)c1 [(96)]
199 µM | 68 µM | 264 µM |  |  | CCCSC[C@H](NC(=O)N(CCC)C(=O)c1cccc(-c2ccccc2Cl)c1)C(=O)O [(97)]
93 µM | 32 µM | 107 µM |  |  | CCCN(C(=O)N[C@@H](CSCC(C)C)C(=O)O)C(=O)c1cccc(-c2ccccc2Cl)c1 [(98)]
163 µM | 60 µM | 168 µM |  |  | CCCN(C(=O)N[C@@H](CSC(C)C)C(=O)O)C(=O)c1cccc(-c2ccccc2Cl)c1 [(99)]
48 µM | 18 µM | 52 µM |  |  | CCCN(C(=O)N[C@@H](CSc1ccccc1)C(=O)O)C(=O)c1cccc(-c2ccccc2Cl)c1 [(100)]
42 µM | 19 µM | 55 µM |  |  | CCCN(C(=O)N[C@@H](CSCCc1ccccc1)C(=O)O)C(=O)c1cccc(-c2ccccc2Cl)c1 [(101)]
50 µM | 18 µM | 51 µM |  |  | CCCN(C(=O)N[C@@H](CSCCCc1ccccc1)C(=O)O)C(=O)c1cccc(-c2ccccc2Cl)c1 [(102)]
53 µM | 18 µM | 36 µM |  |  | CCCN(C(=O)N[C@@H](CSCc1ccccc1-c1ccccc1)C(=O)O)C(=O)c1cccc(-c2ccccc2Cl)c1 [(103)]

IC50 (Bcl-xLΔ25) | IC50 (Bcl-wΔ29) | IC50 (Mcl-1) | Bcl-xLΔ25 IC50 (µM) (Bcl-xLΔ25) | Mcl-1 IC50 (µM) (Mcl-1) | Compound
187 µM | 205 µM | 267 µM |  |  | CCCN(C(=O)Cc1cccc(-c2ccccc2)c1)C(=O)N[C@@H](CSCc1ccccc1)C(=O)O [(104)]
183 µM | 71 µM | 164 µM |  |  | CCCN(C(=O)Cc1ccccc1)C(=O)N[C@@H](CSCc1ccccc1)C(=O)O [(105)]
70 µM | 37 µM | 73 µM |  |  | CC(C)Cc1cccc(C(=O)N(Cc2ccccc2)C(=O)N[C@@H](CSCc2ccccc2)C(=O)O)c1 [(107)]
87 µM | 49 µM | 72 µM |  |  | CC(C)Cc1cccc(C(=O)N(CCc2ccccc2)C(=O)N[C@@H](CSCc2ccccc2)C(=O)O)c1 [(108)]
81 µM | 29 µM | 65 µM |  |  | CC(C)CCc1cccc(C(=O)N(Cc2ccccc2)C(=O)N[C@@H](CSCc2ccccc2)C(=O)O)c1 [(109)]
85 µM | 37 µM | 64 µM |  |  | CC(C)CCc1cccc(C(=O)N(CCc2ccccc2)C(=O)N[C@@H](CSCc2ccccc2)C(=O)O)c1 [(110)]
115 µM | 36 µM | 86 µM |  |  | CCCCSC[C@H](NC(=O)N(Cc1ccccc1)C(=O)c1cccc(CC(C)C)c1)C(=O)O [(111)]
119 µM | 40 µM | 112 µM |  |  | CCCCSC[C@H](NC(=O)N(CCc1ccccc1)C(=O)c1cccc(CC(C)C)c1)C(=O)O [(112)]
94 µM | 28 µM | 65 µM |  |  | CCCCSC[C@H](NC(=O)N(Cc1ccccc1)C(=O)c1cccc(CCC(C)C)c1)C(=O)O [(113)]
85 µM | 32 µM | 58 µM |  |  | CCCCSC[C@H](NC(=O)N(CCc1ccccc1)C(=O)c1cccc(CCC(C)C)c1)C(=O)O [(114)]
32 µM |  | 57 µM |  |  | CCCN(C(=O)N[C@@H](CSCc1ccccc1)C(=O)O)C(=O)c1cccc(C#Cc2ccccc2[N+](=O)[O-])c1 [(135)]
23 µM |  | 204 µM |  |  | CCCN(C(=O)N[C@@H](CSCc1ccccc1)C(=O)O)C(=O)c1cccc(C#CCC(C)C)c1 [(136)]
9.5 µM |  | 132 µM |  |  | CCCN(C(=O)N[C@@H](CSCC(C)C)C(=O)O)C(=O)c1cccc(C#Cc2ccc(F)cc2)c1 [(137)]
26 µM |  | 146 µM |  |  | CCCN(C(=O)N[C@@H](CSCC(C)C)C(=O)O)C(=O)c1cccc(C#Cc2ccc(Cl)cc2)c1 [(138)]
28 µM |  | 80 µM |  |  | CCCN(C(=O)N[C@@H](CSCC(C)C)C(=O)O)C(=O)c1cccc(C#Cc2ccc(Br)cc2)c1 [(139)]
44 µM |  |  |  | n.b.^b | CCCN(C(=O)N[C@@H](CSCC(C)C)C(=O)O)C(=O)c1cccc(C#Cc2cccc(F)c2)c1 [(140)]
28 µM |  | 84 µM |  |  | CCCN(C(=O)N[C@@H](CSCC(C)C)C(=O)O)C(=O)c1cccc(C#Cc2cccc(Cl)c2)c1 [(141)]
32 µM |  | 70 µM |  |  | CCCN(C(=O)N[C@@H](CSCC(C)C)C(=O)O)C(=O)c1cccc(C#Cc2cccc(Br)c2)c1 [(142)]
30 µM |  | 74 µM |  |  | CCCN(C(=O)N[C@@H](CSCC(C)C)C(=O)O)C(=O)c1cccc(C#Cc2ccccc2C)c1 [(143)]
39 µM |  | 66 µM |  |  | CCCN(C(=O)N[C@@H](CSCC(C)C)C(=O)O)C(=O)c1cccc(C#Cc2cccc(C)c2)c1 [(144)]
48 µM |  | 92 µM |  |  | CCCN(C(=O)N[C@@H](CSCC(C)C)C(=O)O)C(=O)c1cccc(C#Cc2ccc(C)cc2)c1 [(145)]
46 µM |  |  |  | n.b.^b | CCCN(C(=O)N[C@@H](CSCC(C)C)C(=O)O)C(=O)c1cccc(C#Cc2ccccc2OC)c1 [(146)]
50 µM |  | 85 µM |  |  | CCCN(C(=O)N[C@@H](CSCC(C)C)C(=O)O)C(=O)c1cccc(C#Cc2ccc(OC)cc2)c1 [(147)]
172 µM |  | 71 µM |  |  | CCCN(C(=O)N[C@@H](CSCC(C)C)C(=O)O)C(=O)c1cccc(C#Cc2ccc(Oc3ccccc3)cc2)c1 [(148)]
